Type in all cases: biochemical
The target in one test is PKC delta kinase (Homo sapiens, UniProt Q05655). The experiment in a line: PKC delta kinase inhibition, coupled-enzyme NADH absorbance assay (Ki). The note with it: 150 μM ATP, 46 nM PKC delta, 30° C.; read-out: Ki PKC delta. The protocol: (§1) An assay buffer solution was prepared which consisted of 100 mM HEPES (pH 7.5), 10 mM MgCl2, 25 mM NaCl, 0.1 mM EDTA and 0.01% Brij. […] To 16 μL of this enzyme buffer, in a 384 well plate, was added 1 μL of VRT stock solution in DMSO. The mixture was allowed to equilibrate for 10 mins at 30° C. […] Ki values were calculated from initial rate data by non-linear regression using the Prism software package (Prism 4.0a, Graphpad Software, San Diego, Calif.).
Chain of PKC delta kinase (Q05655 whole entry): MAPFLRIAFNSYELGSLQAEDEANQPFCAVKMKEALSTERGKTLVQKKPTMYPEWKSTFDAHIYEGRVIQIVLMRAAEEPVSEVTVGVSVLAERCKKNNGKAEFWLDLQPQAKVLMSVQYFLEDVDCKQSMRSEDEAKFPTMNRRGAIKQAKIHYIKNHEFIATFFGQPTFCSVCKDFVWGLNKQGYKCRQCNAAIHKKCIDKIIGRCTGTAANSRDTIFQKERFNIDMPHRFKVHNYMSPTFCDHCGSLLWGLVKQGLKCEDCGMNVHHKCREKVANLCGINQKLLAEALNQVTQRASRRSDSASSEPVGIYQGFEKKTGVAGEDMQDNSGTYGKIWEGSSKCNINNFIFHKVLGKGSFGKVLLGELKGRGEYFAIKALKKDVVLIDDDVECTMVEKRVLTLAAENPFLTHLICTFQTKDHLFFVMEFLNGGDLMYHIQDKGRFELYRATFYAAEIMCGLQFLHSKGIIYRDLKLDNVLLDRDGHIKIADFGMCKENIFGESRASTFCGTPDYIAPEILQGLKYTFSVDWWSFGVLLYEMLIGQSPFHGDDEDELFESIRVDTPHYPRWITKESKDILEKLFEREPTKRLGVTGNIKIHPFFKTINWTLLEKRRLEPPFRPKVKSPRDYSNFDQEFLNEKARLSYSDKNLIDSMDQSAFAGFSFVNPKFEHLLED

For a further test, the target named is PKC theta kinase (Homo sapiens, UniProt Q04759). Briefly: PKC theta kinase inhibition, coupled-enzyme NADH absorbance assay (Ki). Particulars: 240 μM ATP, 18 nM PKC theta, 30° C.; read-out: Ki PKC theta. The protocol: An assay buffer solution was prepared which consisted of 100 mM HEPES (pH 7.5), 10 mM MgCl2, 25 mM NaCl, 0.1 mM EDTA and 0.01% Brij. […] To 60 μL of this enzyme buffer, in a 384 well plate, was added 2 μL of VRT stock solution in DMSO. The mixture was allowed to equilibrate for 10 mins at 30° C. […] Ki values were calculated from initial rate data by non-linear regression using the Prism software package (Prism 4.0a, Graphpad Software, San Diego, Calif.).
Chain of PKC theta kinase (Q04759 whole entry): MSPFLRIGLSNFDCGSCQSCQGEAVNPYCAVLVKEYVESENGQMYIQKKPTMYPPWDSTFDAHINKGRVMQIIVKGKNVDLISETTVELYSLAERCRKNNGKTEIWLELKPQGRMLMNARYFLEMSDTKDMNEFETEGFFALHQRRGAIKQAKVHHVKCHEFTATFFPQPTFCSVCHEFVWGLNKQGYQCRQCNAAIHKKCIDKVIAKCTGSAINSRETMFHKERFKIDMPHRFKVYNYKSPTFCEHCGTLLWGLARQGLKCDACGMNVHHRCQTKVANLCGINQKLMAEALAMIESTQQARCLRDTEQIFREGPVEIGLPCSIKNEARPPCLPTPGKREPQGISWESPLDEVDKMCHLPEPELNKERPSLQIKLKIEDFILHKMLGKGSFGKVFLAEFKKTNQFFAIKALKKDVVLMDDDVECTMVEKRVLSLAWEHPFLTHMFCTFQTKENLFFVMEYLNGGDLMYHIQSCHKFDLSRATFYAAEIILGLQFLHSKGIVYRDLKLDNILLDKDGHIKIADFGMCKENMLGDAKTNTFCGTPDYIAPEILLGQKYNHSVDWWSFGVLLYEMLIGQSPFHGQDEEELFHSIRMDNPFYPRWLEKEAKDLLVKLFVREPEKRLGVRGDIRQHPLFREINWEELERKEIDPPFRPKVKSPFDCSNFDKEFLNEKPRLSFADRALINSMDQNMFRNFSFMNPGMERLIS

For another test, the target named is PKC alpha kinase (Homo sapiens, UniProt P17252). The experiment in a line: PKC alpha kinase inhibition, coupled-enzyme NADH absorbance assay (Ki). The note with it: 130 μM ATP, 4.5 nM PKC alpha, 30° C.; read-out: Ki PKC alpha. The protocol:
as §1, with “EDTA, 100 μM CaCl2” for “EDTA”, “C. The enzyme reaction was initiated by the addition of 16 μL stock ATP solution prepared in assay buffer to a final assay concentration of 130 μM. Initial rate data was determined from the rate of change of absorbance at 340 nm (corresponding to stoichiometric consumption of NADH) using a Molecular Devices Spectramax plate reader (Sunnyvale, Calif.) over 15 mins at 30° C.” for “C.”

Consider `NCC1(c2cc(F)cc(-c3ccnc4[nH]nc(C5CC5)c34)c2)CCC1` [Compound 267], for which the values for the Ki on PKC delta kinase, at PKC theta kinase and on PKC alpha kinase were less than 500 nM, less than 50 nM and less than 500 nM, respectively.

Consider `Cc1cc(-c2ccnc3[nH]ncc23)cc(C2(CN)CCCC2)c1` [Compound 189], for which the Ki on PKC theta kinase is less than 50 nM; on PKC alpha kinase, less than 2800 nM.

As for `CC(CN)(c1cccc(-c2ccnc3[nH]ncc23)c1)C1CCCC1` (centres unmarked) [Compound 46], the Ki on PKC delta kinase was less than 500 nM; at PKC theta kinase, less than 50 nM; at PKC alpha kinase, less than 500 nM.

As to `NCC1(c2cccc(-c3ccnc4[nH]nc(C(F)(F)F)c34)c2)CCOCC1` [Compound 214], the Ki on PKC delta kinase was less than 500 nM; on PKC theta kinase it was less than 50 nM; on PKC alpha kinase it was less than 500 nM.

As for `CC(C)(C#N)c1cc(-c2ccnc3[nH]ncc23)cc(C2CCCCC2)c1` [Compound 58], the Ki on PKC theta kinase is less than 2800 nM.

Take `CC(C)(CN)c1cccc(-c2ccnc3[nH]ncc23)c1` [Compound 31, 2-(3-(1H-pyrazolo[3,4-b]pyridin-4-yl)phenyl)-2-methylpropan-1-amine]: the figures for the Ki on PKC delta kinase, on PKC theta kinase and on PKC alpha kinase were less than 500 nM, less than 50 nM and less than 2800 nM, respectively.

Turning to `NC[C@]1(c2cccc(-c3ccnc4[nH]ncc34)c2)CC[C@H](O)CC1` [Compound 183], the Ki at PKC delta kinase was less than 2800 nM; at PKC theta kinase, less than 500 nM; at PKC alpha kinase, more than 1200 nM.

Consider `CCC(C)(C#N)c1cc(C=O)cc(-c2ccnc3[nH]ncc23)c1` (centres unmarked) [Compound 120], for which the Ki at PKC delta kinase is more than 2000 nM; on PKC theta kinase it was less than 500 nM; on PKC alpha kinase it was more than 1200 nM.

For the compound `NCC1CCc2ccc(-c3ccnc4[nH]ncc34)cc21` (centres unmarked) [Compound 308], the Ki at PKC delta kinase is less than 500 nM; on PKC theta kinase, less than 500 nM; on PKC alpha kinase it was more than 1200 nM.

For `C=CCC1(c2cc(C)cc(-c3ccnc4[nH]ncc34)c2)CNC(=O)O1` (centres unmarked) [Compound 325], the results for the Ki on PKC delta kinase, on PKC theta kinase and on PKC alpha kinase were more than 1200 nM, less than 500 nM and less than 500 nM, respectively.

On to `Cc1cnc2[nH]ncc2c1-c1cccc(C(C)(C)CN)c1` [Compound 237, 2-methyl-2-(3-(5-methyl-1H-pyrazolo[3,4-b]pyridin-4-yl)phenyl)propan-1-amine], for which the Ki on PKC delta kinase was less than 2800 nM; at PKC theta kinase it was less than 2800 nM; at PKC alpha kinase it was less than 500 nM.

Turning to `CCC(F)(CN)c1cc(C)cc(-c2ccnc3[nH]nc(C(F)(F)F)c23)c1` (centres unmarked) [Compound 293], the results for the Ki at PKC delta kinase, on PKC theta kinase and on PKC alpha kinase were less than 500 nM, less than 50 nM and less than 500 nM, respectively.

In the case of `CCC(C)(C#N)c1cc(CC(F)(F)F)cc(-c2ccnc3[nH]ncc23)c1` (centres unmarked) [Compound 113], the Ki at PKC delta kinase is more than 2000 nM; at PKC theta kinase it was less than 500 nM; on PKC alpha kinase, more than 1200 nM.

With `NCc1cccc(-c2ccnc3[nH]nc(C4CC4)c23)c1` [Compound 269], the values for the Ki on PKC delta kinase, at PKC theta kinase and at PKC alpha kinase were more than 1200 nM, more than 700 nM and more than 1200 nM, respectively.

For the compound `N#CC1(c2cccc(-c3ccnc4[nH]ncc34)c2)CC(F)(F)C1` [Compound 226], the values for the Ki on PKC delta kinase, on PKC theta kinase and on PKC alpha kinase were more than 1200 nM, more than 700 nM and more than 1200 nM, respectively.

For the compound `C#CCC(CC)(CN)c1cccc(-c2ccnc3[nH]ncc23)c1` (centres unmarked) [Compound 178], the Ki at PKC delta kinase is less than 500 nM; at PKC theta kinase, less than 50 nM; on PKC alpha kinase, less than 500 nM.

For the compound `CC(C)(CN)c1cc(C2=CCCCC2)cc(-c2ccnc3[nH]ncc23)c1` [Compound 37], the Ki on PKC theta kinase is less than 2800 nM.

On to `CC(C)(C#N)c1cc(Nc2ccccc2)cc(-c2ccnc3[nH]ncc23)c1` [Compound 10], for which the results for the Ki on PKC delta kinase and at PKC theta kinase were more than 2800 nM and less than 500 nM, respectively.

Turning to `CC(C)(C#N)c1cc(NC2CCNCC2)cc(-c2ccnc3[nH]ncc23)c1` [Compound 20], at PKC theta kinase, the Ki is less than 500 nM.

For the compound `N#CC1(c2cccc(-c3ccnc4[nH]ncc34)n2)CCNC1` (centres unmarked) [Compound 3], the Ki was less than 500 nM on PKC delta kinase and less than 50 nM at PKC theta kinase.

For the compound `C=C(C)c1cc(-c2ccnc3[nH]ncc23)cc(C(C)(C)C#N)c1` [Compound 65], the Ki on PKC theta kinase was less than 500 nM.

Consider `CC(C)(C#N)c1cc(-c2ccnc3n[nH]cc23)ccc1Br` [Compound 83], for which, at PKC theta kinase, the Ki was less than 2800 nM.

For `CC(C)(C#N)c1cc(-c2ccccc2)cc(-c2ccnc3[nH]ncc23)c1` [Compound 53, 2-(5-(1H-pyrazolo[3,4-b]pyridin-4-yl)biphenyl-3-yl)-2-methylpropanenitrile], the Ki at PKC theta kinase was less than 2800 nM.

With `CC(C)(C#N)c1cc(C(=O)c2ccccc2)cc(-c2ccnc3[nH]ncc23)c1` [Compound 16], on PKC theta kinase, the Ki is less than 2800 nM.

In the case of `C=CCc1cc(CNC)cc(-c2ccnc3[nH]ncc23)c1` [Compound 63], the Ki on PKC theta kinase is less than 500 nM.

With `CC(C)(C#N)c1cc(C2=CCCCC2)cc(-c2ccnc3[nH]ncc23)c1` [Compound 56], the Ki on PKC theta kinase was more than 2800 nM.

As for `CC(=O)N1CCN(c2cc(-c3ccnc4[nH]ncc34)cc(C(C)(C)C#N)c2)CC1` [Compound 7], the Ki on PKC delta kinase and on PKC theta kinase was more than 2800 nM throughout.

In the case of `N#CC1(c2cccc(-c3ccnc4[nH]ncc34)c2)CCNCC1` [Compound 6], the Ki at PKC delta kinase is less than 2800 nM; at PKC theta kinase, less than 500 nM.

Turning to `N#CC1(c2cccc(-c3ccnc4[nH]ncc34)n2)CCNCC1` [Compound 2], the Ki at PKC delta kinase was less than 500 nM; on PKC theta kinase, less than 50 nM.

For `CC(=O)c1cc(-c2ccnc3[nH]ncc23)cc(C(C)(C)C#N)c1` [Compound 24], the Ki on PKC theta kinase is less than 500 nM.

`CC(C)(CN)c1cc(-c2ccc[nH]2)cc(-c2ccnc3[nH]ncc23)c1` [Compound 38]: at PKC theta kinase, the Ki is less than 500 nM.

Consider `CC(C)C(O)c1cc(-c2ccnc3[nH]ncc23)cc(C(C)(C)CN)c1` (centres unmarked) [Compound 43], for which the Ki on PKC theta kinase was less than 2800 nM.

With `CC(C)(CN)c1cc(-c2ccnc3[nH]ncc23)cc(N2CCCCC2)c1` [Compound 33], the Ki on PKC theta kinase is more than 2800 nM.

With `CC(C)(CN)c1cc(-c2ccccc2)cc(-c2ccnc3[nH]ncc23)c1` [Compound 35], the Ki on PKC theta kinase was less than 2800 nM.

In the case of `C#Cc1cc(-c2ccnc3[nH]ncc23)cc(C(C)(C)C#N)c1` [Compound 61], the Ki on PKC theta kinase is less than 500 nM.

Turning to `CC(C)(C#N)c1cc(NC2CNC2)cc(-c2ccnc3[nH]ncc23)c1` [Compound 14], the Ki at PKC theta kinase is less than 500 nM.

Turning to `C/C=C/c1cc(CNC)cc(-c2ccnc3[nH]ncc23)c1` [Compound 60], the Ki at PKC theta kinase is less than 2800 nM.

As for `OC1CCc2ccc(-c3ccnc4[nH]ncc34)cc21` (centres unmarked) [Compound 29], on PKC theta kinase, the Ki is more than 2800 nM.

For the compound `CC(C)(C#N)c1cc(-c2ccnc3[nH]ncc23)cc(N2CCCCC2)c1` [Compound 9], the Ki on PKC theta kinase is less than 2800 nM.

With `O=C1CCc2cc(-c3ccnc4[nH]ncc34)ccc21` [Compound 26], the Ki at PKC theta kinase is less than 2800 nM.

Regarding `CC(C)(C#N)c1cc(NCc2ccccc2)cc(-c2ccnc3[nH]ncc23)c1` [Compound 12], on PKC theta kinase, the Ki was less than 2800 nM.

Take `O=C1CCc2ccc(-c3ccnc4[nH]ncc34)cc21` [Compound 28]: the Ki at PKC theta kinase is less than 500 nM.

With `N#CCc1cccc(-c2ccnc3[nH]ncc23)c1` [Compound 23], the Ki on PKC theta kinase was less than 500 nM.

As for `CC(C)(C#N)c1cc(-c2ccnc3[nH]ncc23)cc(C(O)c2ccccc2)c1` (centres unmarked) [Compound 15], the Ki at PKC theta kinase is less than 2800 nM.

`CC(C)(C#N)c1cc(NCCCNC(=O)OCc2ccccc2)cc(-c2ccnc3[nH]ncc23)c1` [Compound 82]: on PKC theta kinase, the Ki was less than 2800 nM.

`CC(C)(C#N)c1cccc(-c2ccnc3[nH]ncc23)c1` [Compound 4, 2-(3-(1H-pyrazolo[3,4-b]pyridin-4-yl)phenyl)-2-methylpropanenitrile]: the results for the Ki at PKC delta kinase and on PKC theta kinase were less than 2800 nM and less than 50 nM, respectively.

For `OC1CCc2cc(-c3ccnc4[nH]ncc34)ccc21` (centres unmarked) [Compound 27], the Ki at PKC theta kinase was less than 2800 nM.

With `CCCc1cc(-c2ccnc3[nH]nc(C(F)(F)F)c23)cc(C2(C#N)CC2)c1` [Compound 313], the Ki on PKC delta kinase and at PKC alpha kinase was more than 1200 nM each time.

As for `Cc1cc(-c2ccnc3[nH]ncc23)cc(C(C)(C)C#N)c1` [Compound 5], the Ki at PKC delta kinase was less than 2800 nM; on PKC theta kinase it was less than 50 nM.

With `CC(C)(C)OC(=O)NCCNc1cc(-c2ccnc3[nH]ncc23)cc(C(C)(C)C#N)c1` [Compound 81], the Ki on PKC theta kinase is less than 2800 nM.

For `CCC(C#N)(CC)c1cccc(-c2ccnc3[nH]ncc23)c1` [Compound 68], the values for the Ki on PKC theta kinase and on PKC alpha kinase were less than 500 nM and less than 2800 nM, respectively.

As for `CNCc1cc(Br)cc(-c2ccnc3[nH]ncc23)c1` [Compound 25], on PKC theta kinase, the Ki is less than 500 nM.

In the case of `CC(C)(C#N)c1cc(-c2ccnc3[nH]ncc23)cc(N2CCNCC2)c1` [Compound 8], the Ki was more than 2800 nM at PKC delta kinase and less than 500 nM on PKC theta kinase.

The values are drawn from patent US8173635B2, “Kinase inhibitors” (Vertex Pharmaceuticals Incorporated, priority 2007, dated 2012).
